Measured values: US20120149645A1, “COMPOSITIONS AND MODULATION OF MYOCYTE ENHANCER FACTOR 2 (MEF2)” (EMORY UNIVERSITY, priority 2010, published 2012)

Columns and labels:
[1] = test system: TH+ neurons in SNpc; assay: MPTP mouse model of PD, TH immunohistochemistry in SNpc; details: mice, chronic MPTP exposure; SNpc and striatum
Method: (B) Role of mitochondrial MEF2D-ND6 pathway in maintaining TH+ neurons in SNpc in a MPTP mouse model of PD. For each group, three mice received stereotactical injection of control vector (GFP) or Mt2Ddn lentivirus in SN. Two weeks later, mice were exposed to MPTP. After treatment for seven days, the survival of lentivirus-transduced TH+ neurons in SN was determined by immunohistochemistry (left panel). Quantitative analysis of nine mice from three independent experiments was shown at the bottom panel (scale bar, 30 μm; **P<0.01).

[2] = test system: mitochondrial MEF2D and ND6; assay: MPTP mouse model, western blotting of mitochondria purified from brain SNpc; type: in vivo; details: chronic intraperitoneal MPTP vs saline treated controls
Method: For each group, six eight-week-old mice received chronic intraperitoneal injections of MPTP-HCl in saline or saline alone were killed on 5 or 20 days after injection. Mitochondria purified from brain SNpc region were analyzed by western blotting. Experiments were repeated three times. […] For each group, three mice received stereotactical injection of control vector (GFP) or Mt2Ddn lentivirus in SN. Two weeks later, mice were exposed to MPTP. After treatment for seven days, the survival of lentivirus-transduced TH+ neurons in SN was determined by immunohistochemistry (left panel). Quantitative analysis of nine mice from three independent experiments was shown at the bottom panel (scale bar, 30 μm; **P<0.01). […] Mitochondria were purified from brain striata of postmortem PD patients and controls (normal). Equal amounts of mitochondrial proteins were subjected to western blotting (upper panel). Quantitative analysis of the bands was shown at the right panel (n=13 patients and 13 controls, *P<0.01). Experiments were repeated two times.
Mitochondria were purified from brain tissue using discontinuous sucrose gradient method. Briefly, brain homogenate was made in ice-cold homo-buffer (0.32 M sucrose, 20 mM Tris-HCl, pH 7.4) and spun at 900×g, 4° C. for 10 min. The supernatant was transferred to another clean tube and spun at 10,000×g, 4° C. for 10 min. […]

[3] = target: MEF2D (1-91) (UniProt Q63943 Q63943:1-91); assay: EMSA; 10 ng protein, on ice 30 min; details: tags: GST fusion (N-terminal GST); label: 32P
Sequence of MEF2D (1-91) (Q63943 1-91, one chain of several): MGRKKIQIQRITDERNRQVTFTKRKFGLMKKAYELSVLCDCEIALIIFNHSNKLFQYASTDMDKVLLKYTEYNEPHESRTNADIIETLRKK

Row | Molecule | immunohistochemical signal for tyrosine hydroxylase (TH) [1] | level of ND6 protein in mouse brain [2] | mitochondrial MEF2D in mouse brain [2] | binding result [3]
1 | CN1CC=C(c2ccccc2)CC1 [MPTP, 1-methyl 4-phenyl 1,2,3,6-tetrahydropyridine] | loss | clear decline | significant reduction | 
2 | ND6 MEF2 site probe WT (dsDNA) DNA 1: CTAAACCCCCATAAATAGGAGAAGGCTT DNA 2: AAGCCTTCTCCTATTTATGGGGGTTTAG |  |  |  | binds
